Laboratory results: patent US10407395B2, “Benzimidazole compound and medical use thereof” (Sumitomo Dainippon Pharma Co., Ltd., priority 2015, dated 2019)

The molecules below were run against human SCN9A (Nav 1.7) (Homo sapiens, UniProt Q15858) (assay: Measurement of Na ion current (Nav 1.7) by automated patch clamp assay in cells stably-expressing human SCN9A). Details: compound concentration 10 μmol/L; holding potential inactivating 50% Nav 1.7 channel (around −60 mV); read-out: Inhibitory rate (%) of Na ion current.
Chain of human SCN9A (Nav 1.7) (Q15858 whole entry): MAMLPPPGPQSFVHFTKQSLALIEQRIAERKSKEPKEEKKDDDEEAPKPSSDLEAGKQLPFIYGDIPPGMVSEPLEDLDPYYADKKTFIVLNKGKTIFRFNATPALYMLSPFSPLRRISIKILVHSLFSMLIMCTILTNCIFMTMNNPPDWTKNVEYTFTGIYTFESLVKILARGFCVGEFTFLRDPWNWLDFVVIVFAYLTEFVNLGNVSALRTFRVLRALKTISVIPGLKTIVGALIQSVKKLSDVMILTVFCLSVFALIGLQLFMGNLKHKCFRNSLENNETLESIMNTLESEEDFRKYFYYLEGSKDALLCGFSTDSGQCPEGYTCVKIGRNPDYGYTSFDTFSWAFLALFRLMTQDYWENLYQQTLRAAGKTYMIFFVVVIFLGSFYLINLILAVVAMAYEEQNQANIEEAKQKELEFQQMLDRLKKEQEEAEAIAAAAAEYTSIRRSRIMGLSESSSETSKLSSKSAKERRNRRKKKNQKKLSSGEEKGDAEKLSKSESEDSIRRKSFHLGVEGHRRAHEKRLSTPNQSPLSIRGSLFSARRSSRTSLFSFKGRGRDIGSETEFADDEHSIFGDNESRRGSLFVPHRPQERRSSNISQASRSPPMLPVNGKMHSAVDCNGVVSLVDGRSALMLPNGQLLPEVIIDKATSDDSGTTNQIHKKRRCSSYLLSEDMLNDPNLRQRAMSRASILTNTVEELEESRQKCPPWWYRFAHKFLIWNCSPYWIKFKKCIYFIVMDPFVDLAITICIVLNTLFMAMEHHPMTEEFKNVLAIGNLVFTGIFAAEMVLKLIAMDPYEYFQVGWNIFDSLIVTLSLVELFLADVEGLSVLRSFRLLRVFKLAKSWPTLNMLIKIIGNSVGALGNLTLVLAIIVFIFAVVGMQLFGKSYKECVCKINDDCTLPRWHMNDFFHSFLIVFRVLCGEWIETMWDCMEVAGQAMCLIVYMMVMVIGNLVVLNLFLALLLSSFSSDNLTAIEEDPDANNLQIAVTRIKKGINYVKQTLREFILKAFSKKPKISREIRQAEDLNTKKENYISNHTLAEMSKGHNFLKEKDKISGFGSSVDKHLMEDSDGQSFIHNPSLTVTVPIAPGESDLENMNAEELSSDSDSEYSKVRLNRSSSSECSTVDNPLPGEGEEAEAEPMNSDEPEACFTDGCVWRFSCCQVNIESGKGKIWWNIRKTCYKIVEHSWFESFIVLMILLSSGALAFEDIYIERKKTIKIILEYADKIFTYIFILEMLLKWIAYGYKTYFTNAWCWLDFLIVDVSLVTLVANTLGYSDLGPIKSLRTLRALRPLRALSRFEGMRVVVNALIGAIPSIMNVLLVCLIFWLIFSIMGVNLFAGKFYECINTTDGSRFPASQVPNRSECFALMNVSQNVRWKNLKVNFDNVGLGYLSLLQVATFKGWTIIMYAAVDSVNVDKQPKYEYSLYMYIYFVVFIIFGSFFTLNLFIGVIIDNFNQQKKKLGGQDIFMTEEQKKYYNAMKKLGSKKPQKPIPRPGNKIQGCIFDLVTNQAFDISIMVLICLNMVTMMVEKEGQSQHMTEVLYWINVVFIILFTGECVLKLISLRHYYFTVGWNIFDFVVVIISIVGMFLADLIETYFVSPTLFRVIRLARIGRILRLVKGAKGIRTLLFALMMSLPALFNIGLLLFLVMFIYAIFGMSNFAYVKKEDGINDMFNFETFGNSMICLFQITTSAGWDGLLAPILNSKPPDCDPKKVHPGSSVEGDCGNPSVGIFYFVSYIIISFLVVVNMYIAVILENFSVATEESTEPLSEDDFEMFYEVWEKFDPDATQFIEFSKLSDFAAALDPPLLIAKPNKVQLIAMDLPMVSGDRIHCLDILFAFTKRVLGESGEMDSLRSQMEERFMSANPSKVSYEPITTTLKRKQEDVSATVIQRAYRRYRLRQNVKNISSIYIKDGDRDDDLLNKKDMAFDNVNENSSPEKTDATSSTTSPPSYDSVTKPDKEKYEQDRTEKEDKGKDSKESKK
Format: cell-based
Description: Measurement of Na Ion Current in Voltage-Dependent Na Channel Gene Expressed Cell Nav 1.7 current was measured by automated patch clamp assay using cells stably-expressing human SCN9A. Cells Stably-expressing Human SCN9A Tetracycline-induced cells stably-expressing SCN9A were obtained from ChanTest Corporation. […] Next day, the Na ion current was measured by automated patch clamp assay. Electrophysiologic Measurement of Na Ion Current The Na ion current was measured by automated patch clamp assay using the following extracellular solution and intracellular solution. […] The control of the stimulating pulse and the data acquisition were carried out using EPC10 amplifier and Patch Master Software (HEKA). Data were sampled at 10 kHz, and low-pass filtered at 3 kHz. All the measurements were carried out at room temperature. […] The inhibitory rate of the Na ion current by the test compounds was calculated according to the following calculating formula with the peak current value generated by the depolarizing pulse. […] The inhibitory rate of Na ion current by each Example Compound was evaluated.

Row | SMILES | inhibition at 10 µM
1 | OC1(Cn2cnc3ccc(Oc4ccc(Cl)cc4)cc32)COC1 [Example 91] | 24%
2 | OC1(Cn2cnc3ccc(Oc4ccc(Cl)cc4Cl)cc32)COC1 [Example 106] | 50%
3 | OC1(Cn2cnc3ccc(Oc4ccc(Cl)c(Cl)c4)cc32)COC1 [Example 107] | 51%
4 | OC1(Cn2cnc3ccc(Oc4ccc(Cl)cc4F)cc32)COC1 [Example 109] | 30%
5 | OC1(Cn2cnc3ccc(Oc4ccc(F)cc4Cl)cc32)COC1 [Example 110, 3-{[6-(2-chloro-4-fluorophenoxy)-1H-benzimidazol-1-yl]methyl}oxetan-3-ol] | 58%
6 | OC1(Cn2cnc3ccc(Oc4cc(Cl)cc(Cl)c4)cc32)COC1 [Example 111] | 52%
7 | OC1(Cn2cnc3ccc(Oc4cc(Cl)ccc4Cl)cc32)COC1 [Example 112] | 39%
8 | OC1(Cn2cnc3ccc(Oc4ccc5scnc5c4)cc32)COC1 [Example 114] | 26%
9 | OC1(Cn2cnc3ccc(Oc4ccc5ncccc5c4)cc32)COC1 [Example 115] | 31%
10 | Cc1cc(Cl)ccc1-c1ccc2ncn(CC(C)(C)O)c2c1 [Example 129] | 51%
11 | CC(C)(O)Cn1cnc2ccc(-c3ccc(Cl)cc3F)cc21 [Example 130, 1-[6-(4-chloro-2-fluorophenyl)-1H-benzimidazol-1-yl]-2-methylpropan-2-ol] | 48%
12 | CC(C)(O)Cn1cnc2ccc(-c3ccc(Cl)cc3Cl)cc21 [Example 132] | 65%
13 | CC(C)(O)Cn1cnc2ccc(-c3ccc(S(C)(=O)=O)cc3F)cc21 [Example 135] | 29%
14 | CC(C)(O)Cn1cnc2ccc(-c3ccccc3Cl)cc21 [Example 138] | 34%
15 | CC(C)(O)Cn1cnc2ccc(-c3cccc(Cl)c3)cc21 [Example 139] | 35%
16 | CC(C)(O)Cn1cnc2ccc(-c3cc(F)cc(Cl)c3)cc21 [Example 143] | 35%

Row | SMILES | inhibition at 10 µM
17 | CC(C)(O)Cn1cnc2ccc(-c3cnoc3)cc21 [Example 144] | 19%
18 | CC(C)(O)Cn1cnc2ccc(-c3ccc4ncccc4c3)cc21 [Example 145] | 15%
19 | CC(C)(O)Cn1cnc2ccc(-c3ccoc3)cc21 [Example 146] | 17%
20 | CC(C)(O)Cn1cnc2ccc(-c3ccc4ocnc4c3)cc21 [Example 147] | 15%
21 | OC1(Cn2cnc3ccc(-c4ccc(C(F)(F)F)cc4F)cc32)COC1 [Example 149] | 34%
22 | OC1(Cn2cnc3ccc(-c4ccc(C(F)(F)F)cc4Cl)cc32)COC1 [Example 150] | 47%
23 | OC1(Cn2cnc3ccc(-c4ccc(Cl)cc4C(F)(F)F)cc32)COC1 [Example 151] | 44%
24 | OC1(Cn2cnc3ccc(-c4cccc(Cl)c4Cl)cc32)COC1 [Example 152] | 38%
25 | OC1(Cn2cnc3ccc(-c4cccc(Cl)c4F)cc32)COC1 [Example 153] | 25%
26 | OC1(Cn2cnc3ccc(-c4ccc(F)c(Cl)c4)cc32)COC1 [Example 154] | 52%
27 | OC1(Cn2cnc3ccc(-c4ccc(Cl)c(Cl)c4)cc32)COC1 [Example 155] | 55%
28 | OC1(Cn2cnc3ccc(-c4ccc(Cl)cc4Cl)cc32)COC1 [Example 156] | 54%
29 | OC1(Cn2cnc3ccc(-c4cc(Cl)ccc4Cl)cc32)COC1 [Example 157] | 51%
30 | OC1(Cn2cnc3ccc(-c4cc(Cl)cc(Cl)c4)cc32)COC1 [Example 158] | 53%
31 | Cc1c(Cl)cccc1-c1ccc2ncn(CC3(O)COC3)c2c1 [Example 159] | 45%

The next lines start with the values.

Row | inhibition at 10 µM | SMILES
32 | 46% | CC(C)(O)Cn1cnc2cc(Oc3ncc(C(F)(F)F)cn3)ccc21 [Example 52, 2-methyl-1-(5-{[5-(trifluoromethyl)pyrimidin-2-yl]oxy}-1H-benzimidazol-1-yl)propan-2-ol]
33 | 69% | CC(C)(O)Cn1cnc2cc(Oc3ncc(C(F)(F)F)cc3F)ccc21 [Example 53, 1-(5-{[3-fluoro-5-(trifluoromethyl)pyridin-2-yl]oxy}-1H-benzimidazol-1-yl)-2-methylpropan-2-ol]
34 | 62% | CC(C)(O)Cn1cnc2cc(Oc3ncc(Cl)cc3F)ccc21 [Example 54, 1-{5-[(5-chloro-3-fluoropyridin-2-yl)oxy]-1H-benzimidazol-1-yl}-2-methylpropan-2-ol]
35 | 37% | OC1(Cn2cnc3ccc(Oc4ccc(C(F)(F)F)cn4)cc32)CCOCC1 [Example 55]
36 | 45% | OC1(Cn2cnc3ccc(Oc4ccc(C(F)(F)F)cn4)cc32)COC1 [Example 56, 3-[(6-{[5-(trifluoromethyl)pyridin-2-yl]oxy}-1H-benzimidazol-1-yl)methyl]oxetan-3-ol]
37 | 47% | OC1(Cn2cnc3ccc(Oc4ccc(C(F)(F)F)cn4)cc32)CC1 [Example 57]
38 | 48% | OC1(Cn2cnc3ccc(Oc4ccc(C(F)(F)F)cn4)cc32)CCC1 [Example 58, 1-[(6-{[5-(trifluoromethyl)pyridin-2-yl]oxy}-1H-benzimidazol-1-yl)methyl]cyclobutanol]
39 | 52% | CC(C)(O)Cn1cnc2ccc(Oc3ccc(CC(F)(F)F)cn3)cc21 [Example 60, 2-methyl-1-(6-{[5-(2,2,2-trifluoroethyl)pyridin-2-yl]oxy}-1H-benzimidazol-1-yl)propan-2-ol]
40 | 15% | OC1(Cn2cnc3ccc(Oc4ccc(F)cc4)cc32)COC1 [Example 90]
41 | 16% | Cc1ccc(Oc2ccc3ncn(CC4(O)COC4)c3c2)cc1 [Example 92]
42 | 42% | OC1(Cn2cnc3ccc(Oc4ccc(C(F)(F)F)cc4)cc32)COC1 [Example 93, 3-({6-[4-(trifluoromethyl)phenoxy]-1H-benzimidazol-1-yl}methyl)oxetan-3-ol]
43 | 83% | CC(C)(O)CCn1cnc2ccc(Oc3ccc(OC(F)(F)F)cc3)cc21 [Example 97]
44 | 25% | CC(C)(O)CCn1cnc2ccc(Oc3cccc(F)c3)cc21 [Example 98]
45 | 12% | Cc1ccc(Oc2ccc3ncn(CCC(C)(C)O)c3c2)cc1 [Example 99]
46 | 10% | CC(C)(O)CCn1cnc2ccc(Oc3ccc(F)cc3)cc21 [Example 100]
47 | 59% | CC(C)(O)CCn1cnc2ccc(Oc3ccc(C(F)(F)F)cc3)cc21 [Example 102]
48 | 10% | CC(C)(O)CCn1cnc2ccc(Oc3ccc(C(F)(F)F)nc3)cc21 [Example 103]
49 | 57% | CC(C)(O)Cn1cnc2ccc(Oc3ccc(CC(F)(F)F)cc3)cc21 [Example 104]

Row | inhibition at 10 µM | SMILES
50 | 38% | OC1(Cn2cnc3ccc(Oc4ccc(CC(F)(F)F)cc4)cc32)COC1 [Example 105]
51 | 68% | C[C@]1(O)C[C@@H](n2cnc3ccc(Oc4ccc(C(F)(F)F)cc4)cc32)C1 [Example 113]
52 | 33% | CC(C)(CO)n1cnc2ccc(Oc3ccc(C(F)(F)F)cn3)cc21 [Example 116]
53 | 36% | OC1(Cn2cnc3ccc(Oc4ccc(C(F)(F)F)cn4)cc32)CCCC1 [Example 119]
54 | 13% | CC(C)(O)Cn1cnc2ccc(Oc3ccc(OC(F)(F)F)cn3)cc21 [Example 120]
55 | 21% | C[C@]1(O)C[C@@H](n2cnc3ccc(Oc4ccc(OC(F)(F)F)cn4)cc32)C1 [Example 121]
56 | 14% | CC(C)(O)Cn1cnc2ccc(-c3ccc(C(F)(F)F)nc3)cc21 [Example 122]
57 | 61% | COc1cc(C(F)(F)F)ccc1-c1ccc2ncn(CC(C)(C)O)c2c1 [Example 124]
58 | 13% | COc1ccc(-c2ccc3ncn(CC(C)(C)O)c3c2)cn1 [Example 125]
59 | 24% | COc1cc(F)ccc1-c1ccc2ncn(CC(C)(C)O)c2c1 [Example 128]
60 | 62% | CC(C)(O)Cn1cnc2ccc(-c3ccc(Cl)cc3C(F)(F)F)cc21 [Example 131]
61 | 60% | CC(C)(O)Cn1cnc2ccc(-c3cccc(Cl)c3F)cc21 [Example 133]
62 | 50% | CC(C)(O)Cn1cnc2ccc(-c3ccc(F)c(Cl)c3)cc21 [Example 134]
63 | 70% | CC(C)(O)Cn1cnc2ccc(-c3ccc(C(F)(F)F)cc3Cl)cc21 [Example 136]
64 | 38% | CC(C)(O)Cn1cnc2ccc(-c3cccc(C(F)(F)F)c3)cc21 [Example 137]
65 | 24% | CC(C)(O)Cn1cnc2ccc(-c3ccccc3OC(F)(F)F)cc21 [Example 140]
66 | 53% | CC(C)(O)Cn1cnc2ccc(-c3cccc(OC(F)(F)F)c3)cc21 [Example 141]
67 | 55% | COc1cc(-c2ccc3ncn(CC(C)(C)O)c3c2)cc(C(F)(F)F)c1 [Example 142]

Same assay, conditions: compound concentration 100 μmol/L (footnoted examples); holding potential inactivating 50% Nav 1.7 channel (around −60 mV); read-out: Inhibitory rate (%) of Na ion current

Row | SMILES | inhibition at 100 µM
68 | OC1(Cn2cnc3ccc(Oc4cccc(F)c4)cc32)COC1 [Example 95] | 66%
69 | CC(C)(O)Cn1cnc2ccc(-c3ccc(N4CCOCC4)nc3)cc21 [Example 127] | 16%

More lines, now with the values ahead:

Row | inhibition at 100 µM | SMILES
70 | 32% | OC1(Cn2cnc3ccc(Oc4ccc(C(F)(F)F)nc4)cc32)COC1 [Example 96]
71 | 44% | O[C@H]1CC[C@H](n2cnc3ccc(Oc4ccc(C(F)(F)F)cn4)cc32)CC1 [Example 117]
72 | 7% | Cc1ccc(-c2ccc3ncn(CC(C)(C)O)c3c2)cn1 [Example 126]
